How the values were obtained:
human ADA type 1 = molecular target: T1, human ADA type 1 (Homo sapiens, UniProt P00813); assay: Adenosine Deaminase (ADA) Half-Life; assay type: in vitro ADME; details: Tris-HCl buffer pH 7.5, 40° C., procedures as for compound 2 to 2A
T1 sequence (P00813 1-363): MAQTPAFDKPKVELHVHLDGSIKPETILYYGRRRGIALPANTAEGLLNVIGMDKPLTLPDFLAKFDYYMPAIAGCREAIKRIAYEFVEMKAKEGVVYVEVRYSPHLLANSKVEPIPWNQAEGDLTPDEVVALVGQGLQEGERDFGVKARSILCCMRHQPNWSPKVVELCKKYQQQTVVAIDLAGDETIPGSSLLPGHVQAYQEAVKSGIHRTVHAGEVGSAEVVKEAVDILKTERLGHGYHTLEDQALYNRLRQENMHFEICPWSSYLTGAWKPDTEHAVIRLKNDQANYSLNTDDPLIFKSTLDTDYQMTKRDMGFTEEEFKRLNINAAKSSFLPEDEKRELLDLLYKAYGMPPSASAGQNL
Description: The data in Table 5 was generated by reacting a substrate compound with human ADA type 1 in the presence of Tris-HCl buffer (pH 7.5) at 40° C. and monitoring by LCMS for consumption of starting material. The time necessary for 50% conversion to the corresponding inosine product is noted as the T1/2 in Table 5. It is known that deamination by adenosine deaminase decreases the therapeutic potential of adenosine-like nucleoside inhibitors especially in vivo (see references below). […] It is possible that compounds that are more resistant to ADA will have better pharmacokinetic properties.
Tris-HCl buffer (pH 7.5, 5 mL) was injected into a 25-mL round-bottom flask. The mixture was heated to reflux for 30 minutes. Then the mixture was cooled to 30° C. and (2R,3S,5R)-5-(4-amino-5-fluoro-7H-pyrrolo[2,3-d]pyrimidin-7-yl)-2-ethynyl-2-(hydroxymethyl)tetrahydrofuran-3-ol (Example compound 2, 7 mg, 0.024 mmol) was added, followed by the addition of adenosine deaminase (3 mg, ˜33 units). The resulting mixture was stirred at 40° C. and stirred for 4 days. The reaction mixture was concentrated under vacuum and the residue was purified by preparative-HPLC with the following conditions: Column: X-Bridge C18, 19*150 mm, 5 um; mobile phase, water with 10 mmol ammonium bicarbonate and acetonitrile (6% acetonitrile up to 30% in 5 min, hold 95% for 2 min, down to 40% in 2 min); Detector, uv 254&220 nm. The product-containing fractions were collected and lyophilized to give the title compound 2A as a solid. ^1H-NMR: (400 MHz, d6-DMSO, ppm): δ 11.58 (brs, 1H), 7.86 (s, 1H), 7.22 (d, J=1.6 Hz, 1H), 6.44 (t, J=5.8 Hz, 1H), 5.47 (d, J=4.8 Hz, 1H), 5.26-5.22 (m, 1H), 4.39-4.35 (m, 1H), 3.55-3.45 (m, 2H), 3.42 (s, 1H), 2.41-2.24 (m, 2H). ^19F-NMR: (376 MHz, d6-DMSO, ppm): δ −165.50 (s, 1F). LC-MS: (ES, m/z): 294.15 [M+H]^+.
Using the described procedures, conversion of compounds 4, 8 and 9 to 4A, 8A and 9A, respectively, was not detected (NA=substrate insensitive to adenosine deaminase).

[1] = test system: HIV-1 (H9IIIB virus) replication in MT4-GFP cells; assay: Viking Assay: antiviral potency in a multiple round HIV-1 infection assay; assay type: cell-based; details: inhibition of reproductive ratio R0 between ~48 h and ~72 h post-infection, read-out: Viking, IC50 (10% NHS)
Description: Assessing Antiviral Potency in a Multiple Round HIV-1 Infection Assay.
Cells were then washed and re-suspended in either RPMI 1640 containing 10% or 50% normal human serum at 1.6×10^5 cells/mL (10% or 50% NHS conditions) or in 100% normal human serum at 2×10^5 cells/mL (100% NHS conditions).
The increase in the number of green cells over ˜24 h period gives the reproductive ratio, R0, which is typically 5-15 and has been shown experimentally to be in logarithmic phase (data not shown). Inhibition of R0 is calculated for each well, and IC50s determined by non-linear 4-parameter curve fitting.

[2] = test system: HIV-1 (H9IIIB virus) replication in MT4-GFP cells; assay: Antiviral Persistence assay; details: for Fold shift IC50 72 h/24 h: ratio of IC50 72 h to IC50 24 h
Description: HIV-1 replication was monitored using MT4-gag-GFP clone D3 (hereafter designate MT4-GFP), which are MT-4 cells modified to harbor a GFP reporter gene, the expression of which is dependent on the HIV-1 expressed proteins tat and rev. Productive infection of an MT4-GFP cell with HIV-1 results in GFP expression approximately 24 h post-infection. MT4-GFP cells were maintained at 37° C./5% CO2/90% relative humidity in RPMI 1640 supplemented with 10% fetal bovine serum, 100 U/mL penicillin/streptomycin, and 400 μg/mL G418 to maintain the reporter gene. For 72 hour time point persistence assay (72 h plate) and 24 hour time point control assay (24 h plate), MT4-GFP cells were washed and re-suspended in RPMI 1640 containing 10% normal human serum at either 1.6×10^5 or 2.4×10^5 cells/mL (10% NHS). Compound plates were prepared by dispensing compounds dissolved in DMSO into wells of 384 well cell culture plates ([…]) using an ECHO acoustic dispenser. Each compound was tested in a 10 point serial 3-fold dilution (typical final concentrations: 4.2 μM-0.21 nM). Controls included no inhibitor (DMSO only) and a combination of three antiviral agents (efavirenz, indinavir, and an integrase strand transfer inhibitor at final concentrations of 4 μM each). Cells were added (50 μL/well) to compound plates and were incubated at 37° C./5% CO2/90% relative humidity for 24 hours. The cells were washed with 5×40 uL of RPMI 1640 supplemented with 10% NHS and 100 U/mL penicillin/streptomycin. 72 h plate was return back to 37° C. incubator for additional 48 hour incubation. 40 uL of the cells from each well of the 24 h plate or the 72 h plate (after 48 hour incubation post wash) were transferred to a poly-D-lysine coated plate. The cells were then infected with H9IIIB virus at an approximate multiplicity of infection of 0.1 in the same incubation conditions.
Infected cells were quantified at ˜24 h post-infection, by counting the number of green cells in each well using an Acumen eX3 scanner. IC50s for the compounds in Table 4 were determined by non-linear 4-parameter curve fitting.
The antiviral persistence assay is meant to assess for the persistence of antiviral activity upon removal of the nucleoside. […] The publication AIDS Research and Therapy, 2009, 6:5, highlights the value of antiviral persistence.

MT4-GFP cells = assay: CTG Assay: cytotoxicity in CellTiter-Glo Luminescent Cell Viability Assay; assay type: cell-based; details: 10% normal human serum, 48 h incubation, top concentration 8.4 μM
Description: Assessing Cytotoxicity in CellTiter-Glo Luminescent Cell Viability Assay (CTG).
Cells were then washed and resuspended in RPMI 1640 containing 10% normal human serum at a density of 0.8×10^5 cells/mL. […] Controls included DMSO. […] CTG reagent (Promega, G7573) was added to the cell plates after 48 h incubation according to the manufacturer's description. Luminescence signals were recorded on EnVision plate reader (PerkinElmer). LD50s were determined by non-linear 4-parameter curve fitting. The resulting data is shown in Table 3 with the marketed HIV nucleoside reverse transcriptase inhibitor AZT (azidothymidine, zidovudine) included as a control.

[3] = Human immunodeficiency virus 1, 10% normal human serum
[4] = Human immunodeficiency virus 1, 24 h, read-out: IC50 24 h (nM)
[5] = Human immunodeficiency virus 1, read-out: IC50 72 h (nM)

For `C#C[C@]1(CO)O[C@@H](n2ccc3c(N)nc(Cl)nc32)C[C@@H]1O` [Example 4, (2R,3S,5R)-5-(4-amino-2-chloro-7H-pyrrolo[2,3-d]pyrimidin-7-yl)-2-ethynyl-2-(hydroxymethyl)tetrahydrofuran-3-ol], the “conversion to the corresponding inosine product by adenosine deaminase” value (human ADA type 1) was “not detected”, the IC50 [1, 3] was 4 nM and the IC50 [2, 4] was 9.6 nM. The IC50 [2, 5] was 360 nM and the “Fold shift IC50 72 h/24 h” value [2] was 37.5.

For `C#C[C@]1(CO)O[C@@H](n2ccc3c(N)nc(F)nc32)C[C@@H]1O` [Example 9, (2R,3S,5R)-5-(4-amino-2-fluoro-7H-pyrrolo[2,3-d]pyrimidin-7-yl)-2-ethynyl-2-(hydroxymethyl)tetrahydrofuran-3-ol], the “conversion to the corresponding inosine product by adenosine deaminase” value (human ADA type 1) was “not detected”, the IC50 [1, 3] was 10.2 nM and the IC50 [2, 4] was 37 nM. The IC50 [2, 5] was 270 nM and the “Fold shift IC50 72 h/24 h” value [2] was 7.3.

For “(2R,3S,5R)-5-(4-aminopyrrolo[2,1-f][1,2,4]triazin-7-yl)-3-hydroxy-2-(hydroxymethyl)tetrahydrofuran-2-carbonitrile [Example 12]”, the IC50 ([1]; 10% normal human serum) was 735 nM, the IC50 ([2]; read-out: IC50 24 h, 24 h plate: cells incubated with compound 24 hours, washed, then infected, 10% NHS) was 880 nM and the IC50 ([2]; read-out: IC50 72 h, 72 h plate: compound 24 hours, washed, additional 48 hour incubation, then infected, 10% NHS) was 25000 nM. It also gave an LD50 (MT4-GFP cells) of over 8.4 µM.

From patent US20180002366A1, “4'-SUBSTITUTED NUCLEOSIDE REVERSE TRANSCRIPTASE INHIBITORS” (MERCK SHARP & DOHME CORP., priority 2014, published 2018)
